≈ marks a conversion by molar mass, not a printed value. Entries after “also recorded” stand apart in the source; their conditions may differ. Where two headings read alike, the source gives them in different places.
Tests used:
Japanese killifish = experiment: Fish toxicity test; assay type: in vivo; conditions: 20 ppm, 7 days observation
[1] = system: Sphaerotheca fuliginea (Schlechtendahl) Pollacci; experiment: Control test of powdery mildew of oriental melon; assay type: in vivo
[2] = system: Staphylococcus aureus IFO-3061; experiment: Antimicrobial spectrum (in vitro), agar dilution and diffusion methods; assay type: cell-based; conditions: medium B, 37 °C, time 20
Experimental: (§1) The antimicrobial spectrum of the antibiotic B-98891 as measured by the agar dilution and diffusion methods is shown in Table 3. The "diameter of inhibition zone" in the table represents the diameter of the inhibition zone formed around a paper disc(7 mm. in diameter) immersed in a 5000 μg/ml. solution of the present antibiotic.
(§2) B 0.5 % ehrlich's meat extract, 0.5 % polypeptone, 0.5 % NaCl, 1.5 % agar (pH 7)

[3] = system: Pseudomonas aeruginosa IFO-3080; experiment: as above; assay type: cell-based; conditions: medium B, 37 °C, time 20
Experimental: as §1, §2

[4] = system: Proteus vulgaris IFO-3045; experiment: as above; assay type: cell-based; conditions: medium B, 37 °C, time 20
Experimental: as §1, §2

[5] = system: Escherichia coli IFO-3044; experiment: as above; assay type: cell-based; conditions: medium B, 37 °C, time 20
Experimental: as §1, §2

[6] = system: Bacillus subtilis IFO-3513; experiment: as above; assay type: cell-based; conditions: medium B, 37 °C, time 20
Experimental: as §1, §2

[7] = system: powdery mildew of tobacco plant; experiment: Control test of powdery mildew of tobacco plant
Experimental: (§6) The control chemical was also similarly diluted with water.
Tobacco plants (Nicotiana tabacum L. f. MC) grown in pots, with the fourth mature leaf sufficiently unfolded, were prepared in a green-house, two pots per group, for this test. To encourage the onset of the disease, the pots of diseased plants were placed next to the test pots for spontaneous infection. The fungicidal solutions were prepared in the same manner as Test Example 1 and sprayed onto the test plants in two divided doses, each in sufficient volume, at intervals of 10 days. The percent area of the lesion was investigated 9 days and 15 days, respectively, after the last application.

[8] = system: powdery mildew of oak tree; experiment: Control test of powdery mildew of oak tree
Experimental: as §6
This test was conducted with shoots of naturally grown oak (Quercus glauca Thunb.) trees about 10 years old. The fungicidal solutions prepared in the same manner as Test Example 1 were applied in mists.
The old mature leaves had already been severely diseased and, therefore, spontaneous infection of young leaves on the shoots was expected.
The number of treated leaves was 50 per group. The percent area of the lesion on treated leaves was investigated at 7 days after the treatment.

[9] = system: Rhodotorula rubra IFO-0870; experiment: Antimicrobial spectrum (in vitro), agar dilution and diffusion methods; assay type: cell-based; conditions: medium A, 28 °C, time 40
[10] = system: Sclerotinia sclerotiorum IFO-9395; experiment: as above; assay type: cell-based; conditions: medium A, 28 °C, time 40
[11] = system: Pyricularia oryzae IFO-5279; assay type: cell-based; conditions: medium A, 28 °C, time 40
powdery mildew of barley = experiment: Control test of powdery mildew of barley (pots); assay type: in vivo, Erysiphe graminis
Erysiphe graminis = experiment: Activity against powdery mildew of barley (seedlings in test tubes); conditions: for Percent area of lesion: 18 °C, 7 days
Experimental: The unfolded leaves were inoculated with conidia of Erysiphe graminis using a small brush and each stock was kept in a test tube at 18° C for 7 days. The percent area of the resultant lesion was calculated to determine the effect of the test drug.

[12] = system: Candida albicans IFO-0583; experiment: Antimicrobial spectrum (in vitro), agar dilution and diffusion methods; assay type: cell-based; conditions: medium A, 28 °C, time 40
[13] = system: Mycobacterium smegmatis ATCC-607; experiment: Antimicrobial spectrum (in vitro), agar dilution and diffusion methods; assay type: cell-based; conditions: medium C, 37 °C, time 40
Experimental: as §1
(§3) C 3.0 % glycerin, 0.5 % Ehrlich's meat extract, 0.5 % polypeptone, 0.5 % NaCl, 1.5 % agar (pH 7.0)

[14] = system: Mycobacterium phlei IFO-3158; experiment: as above; assay type: cell-based; conditions: medium C, 37 °C, time 40
Experimental: as §1, §3

powdery mildew of pepper = experiment: Control test of powdery mildew of pepper
Experimental: as §6
The reverse sides of unfolded leaves of pot-grown pepper plants (9 to 10-leaf stage, Capsicum annuum L. f. California Wonder) were inoculated, by dusting, with the pathogenic fungi from infected leaves. Two days later, the leaves were sprayed with adequate volume of test solutions as in Test Example 1. Then, the plants were grown and cared in a green-house and, after timed intervals, the percent area of fungal growth was determined. This test was performed in duplicate for each group.

[15] = system: Penicillium chrysogenum IFO-4626; experiment: Antimicrobial spectrum (in vitro), agar dilution and diffusion methods; assay type: cell-based; conditions: medium A, 28 °C, time 40
[16] = system: powdery mildew of apple plant; experiment: Control test of powdery mildew of apple plant; assay type: in vivo; conditions: 12 days
Experimental: as §6
The seedlings of the apple (Malus pumila Miller var. domestica Schneider f. Rall's Janet) in their 5- to 8-leaf stage were employed. The pathogenic fungi on diseased leaves of an apple plant were dusted over the tops of the seedlings which, then, were kept in a green-house. […] After the application, the seedlings were further grown in a green-house. After 12 days, the percent area of the lesion was investigated. The test was conducted in hexaplicate for each group.

[17] = system: Cochliobolus miyabeanus IFO-5277; experiment: Antimicrobial spectrum (in vitro), agar dilution and diffusion methods; assay type: cell-based; conditions: medium A, 28 °C, time 40
[18] = system: Guignardia laricina IFO-7888; experiment: as above; assay type: cell-based; conditions: medium A, 28 °C, time 88
Experimental: as §1
(§4) A 3.0 % sucrose, 0.2 % L-asparagine, 0.3 % NH4 NO3, 0.1 % KH2 PO4, 0.1 % MgSO4.7H2 O, 0.001 % versenol (manufactured by Dow Chemical Co.; an iron chelate compound; content of iron-sodium ethanol ethylene diamine triacetate is 57.04 %), 1.5 % agar (pH 7) Before use, the following vitamins are added to the medium to the indicated final concentrations. 1 μg/ml. thiamine, 1 μg/ml. riboflavin, 1 μg/ml. calcium pantothenate, 1 μg/ml. niacin, 0.005 μg/ml. biotin, 0.5 μg/ml. folic acid, 2 μg/ml. pyridoxine hydrochloride, 0.5 μg/ml. p-aminobenzoic acid, 0.0002 μg/ml. cyanocobalamin

Botrytis cinerea TKF-12 = experiment: as above; assay type: cell-based; conditions: medium A, 20 °C, time 88
Experimental: as §1, §4

[19] = system: Aspergillus niger IFO-4066; experiment: as above; assay type: cell-based; conditions: medium A, 28 °C, time 40
[20] = system: Penicillium expansum IFO-7813; experiment: Antimicrobial spectrum (in vitro), agar dilution and diffusion methods; assay type: cell-based; conditions: medium A, 28 °C, time 40
[21] = system: Saccharomyces cerevisiae IFO-0209; experiment: as above; assay type: cell-based; conditions: medium A, 28 °C, time 40
[22] = system: Phytophthora infestans (Montagne) de Bary; assay type: in vivo
[23] = system: Sphaerotheca fuliginea Pollacci; experiment: Control effect against drug-resistant powdery mildew on cucumber; conditions: 40 ppm, 7 days
Text: as §6
The leaves of a cucumber plant (Cucumis sativus L. f. Suyo) infected with powdery mildew were flipped over a 1-month cucumber plant in a pot so that the latter was inoculated with Sphaerotheca fuliginea Pollacci. After 1 day, the fungicidal solutions prepared in the same manner as Test Example 1 were sprayed in sufficient volume over the plant. After about 14 days, the fungal growth formed were used to further inoculate intact cucumber plants. One day after the inoculation, fungicidal solution was sprayed and, after 7 days, the percent area of the lesion was determined.

powdery mildew of rose [24] = experiment: Control test of the powdery mildew of rose (Super Star); assay type: in vivo
Experimental: (§5) For this test, rose (Rosa spp.) plants were grown in pots at a green-house.As test plants (forma species: Super Star and Arlene Francis) were used in groups of 3 pots per treatment. […] The number of diseased leaflets on three branches per pot was investigated 7 days after the third application and the percentage of diseased leaflets relative to the total number of leaflets investigated was calculated.

[25] = system: certain gram-positive bacteria, gram-negative bacteria, phytopathogenic fungi and certain yeasts; experiment: Antimicrobial spectrum, summary; assay type: cell-based; conditions: in vitro
Experimental: as §1

powdery mildew of rose [26] = experiment: Control test of the powdery mildew of rose (Arlene Francis); assay type: in vivo
Experimental: as §5

[27] = system: Trichophyton mentagrophytes IFO-5809; experiment: Antimicrobial spectrum (in vitro), agar dilution and diffusion methods; assay type: cell-based; conditions: medium D, 28 °C, time 88
Experimental: as §1

SMILES: NC(N)=NCC(O)CC(O)(C(=O)O)[C@H]1O[C@@H](n2cc(CO)c(N)nc2=O)C=C[C@@H]1NC(=O)[C@@H](N)CO (some centres unmarked) [B-98891]
- fish toxicity (Japanese killifish): no toxic effect; also recorded: substantially harmless to fish
- Percent area of the lesion ([1]; 40 ppm, 7 days): 0%
- Percent area of the lesion ([1]; 40 ppm, 14 days): 19.0%
- Percent area of the lesion ([1]; 40 ppm, 21 days): 40.0%
- Percent area of the lesion ([1]; 80 ppm, 7 days): 1.5%
- Percent area of the lesion ([1]; 80 ppm, 14 days): 7.0%
- Percent area of the lesion ([1]; 80 ppm, 21 days): 24.0%
- Percent area of the lesion ([1]; 160 ppm, 7 days): 0.6%
- Percent area of the lesion ([1]; 160 ppm, 14 days): 0.6%
- Percent area of the lesion ([1]; 160 ppm, 21 days): 5.0%
- Minimal inhibitory concentration [2]: > 500 µg/mL
- Diameter of inhibition zone ([2]; paper disc 7 mm, 5000 μg/ml): 10 mm
- Minimal inhibitory concentration [3]: > 500 µg/mL
- Minimal inhibitory concentration [4]: > 500 µg/mL
- Diameter of inhibition zone ([4]; paper disc 7 mm, 5000 μg/ml): 11 mm
- Minimal inhibitory concentration [5]: 500 µg/mL (≈ 972 µM)
- Diameter of inhibition zone ([5]; paper disc 7 mm, 5000 μg/ml): 14 mm
- Minimal inhibitory concentration [6]: > 500 µg/mL
- Diameter of inhibition zone ([6]; paper disc 7 mm, 5000 μg/ml): 14 mm
- Percent area of lesion ([7]; 40 ppm, 9 days): 11.6%
- Percent area of lesion ([7]; 40 ppm, 15 days): 20.4%
- Percent area of lesion ([7]; 80 ppm, 9 days): 10.0%
- Percent area of lesion ([7]; 80 ppm, 15 days): 13.2%
- Percent area of lesion ([7]; 160 ppm, 9 days): 6.0%
- Percent area of lesion ([7]; 160 ppm, 15 days): 8.5%
- Percent area of lesion ([8]; 40 ppm, 7 days): 8.3%
- Percent area of lesion ([8]; 40 ppm, 14 days): 26.4%
- Percent area of lesion ([8]; 80 ppm, 7 days): 1.1%
- Percent area of lesion ([8]; 80 ppm, 14 days): 1.5%
- Percent area of lesion ([8]; 160 ppm, 7 days): 0.6%
- Percent area of lesion ([8]; 160 ppm, 14 days): 0.5%
- Minimal inhibitory concentration [9]: 50 µg/mL (≈ 97.2 µM)
- Diameter of inhibition zone ([9]; paper disc 7 mm, 5000 μg/ml): 80 mm
- Minimal inhibitory concentration [10]: 500 µg/mL (≈ 972 µM)
- Diameter of inhibition zone ([10]; paper disc 7 mm, 5000 μg/ml): 20 mm
- Minimal inhibitory concentration [11]: > 500 µg/mL
- Percent area of lesions (powdery mildew of barley; 15.6 ppm, 6th leaf, A: 10 days after first application): 0.4%
- Percent area of lesions (powdery mildew of barley; 15.6 ppm, 6th leaf, B: 10 days after second application): 2.1%
- Percent area of lesions (powdery mildew of barley; 15.6 ppm, 6th leaf, C: 10 days after third application): 0.8%
- Percent area of lesions (powdery mildew of barley; 15.6 ppm, 9th leaf, B: 10 days after second application): 2.3%
- Percent area of lesions (powdery mildew of barley; 15.6 ppm, 9th leaf, C: 10 days after third application): 10.5%
- Percent area of lesions (powdery mildew of barley; 31.2 ppm, 6th leaf, A: 10 days after first application): 0.3%
- Percent area of lesions (powdery mildew of barley; 31.2 ppm, 6th leaf, B: 10 days after second application): 2.0%
- Percent area of lesions (powdery mildew of barley; 31.2 ppm, 6th leaf, C: 10 days after third application): 1.3%
- Percent area of lesions (powdery mildew of barley; 31.2 ppm, 9th leaf, B: 10 days after second application): 0.3%
- Percent area of lesions (powdery mildew of barley; 31.2 ppm, 9th leaf, C: 10 days after third application): 1.3%
- Percent area of lesions (powdery mildew of barley; 62.5 ppm, 6th leaf, A: 10 days after first application): 0.1%
- Percent area of lesions (powdery mildew of barley; 62.5 ppm, 6th leaf, B: 10 days after second application): 0.1%
- Percent area of lesions (powdery mildew of barley; 62.5 ppm, 6th leaf, C: 10 days after third application): 0%
- Percent area of lesions (powdery mildew of barley; 62.5 ppm, 9th leaf, B: 10 days after second application): 0.5%
- Percent area of lesions (powdery mildew of barley; 62.5 ppm, 9th leaf, C: 10 days after third application): 0.4%
- Percent area of lesion (Erysiphe graminis; 3.12 ppm): 40%
- Percent area of lesion (Erysiphe graminis; 6.25 ppm): 26%
- Percent area of lesion (Erysiphe graminis; 12.5 ppm): 0%
- Percent area of lesion (Erysiphe graminis; 25 ppm): 0%
- Percent area of lesion (Erysiphe graminis; 50 ppm): 0%
- onset control activity (Erysiphe graminis; compared with the commercially available chemical (Benomyl wettable powder)): more potent onset control activity than the commercially available chemical
- activity against the causative agent of powdery mildew of barley (Erysiphe graminis) (summary) (Erysiphe graminis; in vivo): characteristically high activity
- Minimal inhibitory concentration [12]: > 500 µg/mL
- toxicity in rats (summary) (Acute toxicity in rats): mild
- LD50 (Acute toxicity in rats; intravenous): > 500 mg/kg
- LD50 (Acute toxicity in rats; oral): > 2000 mg/kg
- Minimal inhibitory concentration [13]: 250 µg/mL (≈ 486 µM)
- Diameter of inhibition zone ([13]; paper disc 7 mm, 5000 μg/ml): 24 mm
- Minimal inhibitory concentration [14]: 50 µg/mL (≈ 97.2 µM)
- Diameter of inhibition zone ([14]; paper disc 7 mm, 5000 μg/ml): 27 mm
- Percent area of the lesion (powdery mildew of pepper; 80 ppm, 7 days): 7.9%
- Percent area of the lesion (powdery mildew of pepper; 80 ppm, 10 days): 10.3%
- Percent area of the lesion (powdery mildew of pepper; 160 ppm, 7 days): 5.0%
- Percent area of the lesion (powdery mildew of pepper; 160 ppm, 10 days): 4.6%
- Minimal inhibitory concentration [15]: > 500 µg/mL
- Diameter of inhibition zone ([15]; paper disc 7 mm, 5000 μg/ml): 13 mm
- Percent area of the lesion ([16]; 40 ppm): 0.9%
- Percent area of the lesion ([16]; 80 ppm): 0.6%
- Percent area of the lesion ([16]; 160 ppm): 0%
- Minimal inhibitory concentration [17]: > 500 µg/mL
- Diameter of inhibition zone ([17]; paper disc 7 mm, 5000 μg/ml): 15 mm
- Minimal inhibitory concentration [18]: 100 µg/mL (≈ 194 µM)
- Diameter of inhibition zone ([18]; paper disc 7 mm, 5000 μg/ml): 18 mm
- Minimal inhibitory concentration (Botrytis cinerea TKF-12): 250 µg/mL (≈ 486 µM)
- Diameter of inhibition zone (Botrytis cinerea TKF-12; paper disc 7 mm, 5000 μg/ml): 15 mm
- Minimal inhibitory concentration [19]: > 500 µg/mL
- toxicity in mice (summary) (Acute toxicity in mice): mild
- LD50 (Acute toxicity in mice; intravenous): > 500 mg/kg
- LD50 (Acute toxicity in mice; oral): > 2000 mg/kg
- Minimal inhibitory concentration [20]: 100 µg/mL (≈ 194 µM)
- Diameter of inhibition zone ([20]; paper disc 7 mm, 5000 μg/ml): 25 mm
- Minimal inhibitory concentration [21]: > 500 µg/mL
- Diameter of inhibition zone ([21]; paper disc 7 mm, 5000 μg/ml): 12 mm
- Degree of sporulation ([22]; 250 ppm): Moderate
- Percent area of lesions ([22]; 250 ppm): 100%
- Degree of sporulation ([22]; 500 ppm): None
- Percent area of lesions ([22]; 500 ppm): 0%
- Percent area of lesion ([23]; inoculum: control (untreated)): 15.8%
- Percent area of lesion ([23]; inoculum: lesions after application of B-98891 (80ppm)): 18.3%
- Percent area of lesion ([23]; inoculum: lesions after application of Benlate WP (250 ppm)): 21.7%
- Percent of diseased leaflet (powdery mildew of rose [24]; 40 ppm): 5.6%
- Percent of diseased leaflet (powdery mildew of rose [24]; 80 ppm): 3.2%
- Percent of diseased leaflet (powdery mildew of rose [24]; 160 ppm): 2.6%
- antimicrobial activity [25]: weakly active
- Percent of diseased leaflet (powdery mildew of rose [26]; 40 ppm): 14.9%
- Percent of diseased leaflet (powdery mildew of rose [26]; 80 ppm): 6.7%
- Percent of diseased leaflet (powdery mildew of rose [26]; 160 ppm): 2.2%
- Minimal inhibitory concentration [27]: 500 µg/mL (≈ 972 µM)
